According to patent publication US20230225324A1, “Synergistic Pesticidal Composition Against Sucking Pests Complex” (priority 2020, published 2023):

What was measured:
Jassids = assay: Synergistic insecticidal effect of the combination, mortality of Jassids (Table 3); format: in vivo
Description: (§1) Evaluation of the synergistic insecticidal effect of the composition comprising Diafenthiuron, Pyriproxyfen and an insecticide Dinotefuran can be established by using any synergistic insecticidal composition prepared by the process described in the above examples. For these evaluations one or more of the synergistic insecticidal compositions prepared in the examples are used here.
(§2) Synergism can be calculated by using the Colby's method i.e. the expected (or predicted) response of the combination is calculated by taking the product of the observed response for each individual component of the combination when applied alone divided by 100 and subtracting this value from the sum of observed response for each component when applied alone. Synergism of the combination is then determined by comparing the observed response of the combination to the expected (or predicted) response as calculated from the observed response of each individual component alone. If the observed response of the combination is greater than the expected (or predicted) response then the combination is said to be synergistic and falls within the definition of synergistic effect. (Colby, S. R., Weeds, 1967(15), p. 20-22).

White fly = assay: Synergistic insecticidal effect of the combination, mortality of White fly (Table 2); format: in vivo
Description: as §1, §2

## CN/C(=N/CC1CCOC1)N[N+](=O)[O-] (stereo not drawn) [Dinotefuran, 2-methyl-1-nitro-3-[(tetrahydro-3-furanyl)methyl]guanidine]
Jassids; Dinotefuran 45 ppm
  Observed Mortality %: 65.60%
Jassids; Dinotefuran 60 ppm
  Observed Mortality %: 73.40%
Jassids; Dinotefuran 75 ppm
  Observed Mortality %: 79.00%
Jassids; Dinotefuran 90 ppm
  Observed Mortality %: 83.80%
White fly; Dinotefuran 45 ppm
  Observed Mortality %: 35.10%
White fly; Dinotefuran 60 ppm
  Observed Mortality %: 45.50%
White fly; Dinotefuran 75 ppm
  Observed Mortality %: 52.00%
White fly; Dinotefuran 90 ppm
  Observed Mortality %: 61.40%

## CC(C)c1cc(Oc2ccccc2)cc(C(C)C)c1NC(=S)NC(C)(C)C [Diafenthiuron, 1-tert-butyl-3-(2,6-di-isopropyl-4-phenoxyphenyl)thiourea]
Jassids; Diafenthiuron 120 ppm
  Observed Mortality %: 28.90%
Jassids; Diafenthiuron 240 ppm
  Observed Mortality %: 42.00%
Jassids; Diafenthiuron 360 ppm
  Observed Mortality %: 48.50%
Jassids; Diafenthiuron 480 ppm
  Observed Mortality %: 57.40%
White fly; Diafenthiuron 120 ppm
  Observed Mortality %: 38.40%
White fly; Diafenthiuron 240 ppm
  Observed Mortality %: 48.50%
White fly; Diafenthiuron 360 ppm
  Observed Mortality %: 57.30%
White fly; Diafenthiuron 480 ppm
  Observed Mortality %: 61.80%

## CC(COc1ccc(Oc2ccccc2)cc1)Oc1ccccn1 (racemic) [Pyriproxyfen, 4-phenoxyphenyl (RS)-2-(2-pyridyloxy)propyl ether]
Jassids; Pyriproxyfen 72 ppm
  Observed Mortality %: 21.70%
Jassids; Pyriproxyfen 96 ppm
  Observed Mortality %: 29.20%
Jassids; Pyriproxyfen 120 ppm
  Observed Mortality %: 35.50%
Jassids; Pyriproxyfen 144 ppm
  Observed Mortality %: 37.90%
White fly; Pyriproxyfen 72 ppm
  Observed Mortality %: 30.70%
White fly; Pyriproxyfen 96 ppm
  Observed Mortality %: 38.10%
White fly; Pyriproxyfen 120 ppm
  Observed Mortality %: 43.70%
White fly; Pyriproxyfen 144 ppm
  Observed Mortality %: 46.60%
